Data reported in ChEMBL document CHEMBL6177963, “Development of acylhydrazone linked thiazoles as non-covalent dual inhibitors of SARS-CoV-2 proteases” (Eur J Med Chem, 2025).

Tests used:
[1] = Inhibition of recombinant SARS-CoV-2 MPro overexpressed in Escherichia coli assessed as inhibition constant using VNSTLQISGLRLys(Dabcyl) as substrate by FRET assay; parameters: species or system Severe acute respiratory syndrome coronavirus 2
[2] = tested on: Severe acute respiratory syndrome coronavirus 2; assay: Inhibition of recombinant SARS-CoV-2 MPro overexpressed in Escherichia coli assessed as inhibition constant using VNSTLQISGLRLys(Dabcyl) as substrate at 10 uM by FRET assay relative to control

SMILES	Ki [1]	inhibition [2]	Ki ([1]; read-out: Ki)
CCOC(=O)c1sc(NNC(=O)c2ccc3ccccc3c2)nc1C	Not_active	< 50%	–
Cc1ccc(-c2csc(NNC(=O)c3ccc([N+](=O)[O-])cc3)n2)cc1	–	–	44.7 µM
CCOC(=O)c1sc(NNC(=O)c2ccc(F)cc2)nc1C	Not_active	< 50%	–
CCOC(=O)c1sc(NNC(=O)c2ccccc2OC)nc1C	Not_active	< 50%	–
O=C(NNc1ncc(-c2ccc(Cl)cc2)s1)c1cccc(Cl)c1	Not_active	< 50%	–
O=C(NNc1nc(-c2ccc(Cl)cc2)cs1)c1ccc(Br)cc1	Not_active	< 50%	–
CCOC(=O)c1sc(NNC(=O)c2cccs2)nc1C	–	–	2.4 µM
Oc1ccc(/C=N/Nc2nc(-c3ccc(Cl)cc3)cs2)cc1	–	–	18.8 µM
CCOC(=O)c1sc(NNC(=O)c2ccccc2)nc1C	Not_active	< 50%	–
O=C(NNc1ncc(-c2ccc(Cl)cc2)s1)c1ccc2ccccc2c1	Not_active	< 50%	–
O=C(NNc1nc(-c2ccc(Br)cc2)cs1)c1ccc(Br)cc1	Not_active	< 50%	–
CCOC(=O)c1sc(N/N=C/c2cc3ccccc3nc2Cl)nc1C	Not_active	–	–
Cc1ccc(C(=O)NNc2nc(-c3ccc(C)cc3)cs2)cc1	Not_active	< 50%	–
O=C(NNc1nc(-c2ccc(Br)cc2)cs1)c1ccc(Cl)cc1	Not_active	< 50%	–
CCOC(=O)c1sc(NNC(=O)c2cccc(Cl)c2)nc1C	Not_active	< 50%	–
Clc1nc2ccccc2cc1/C=N/Nc1nc(-c2ccccc2)cs1	Not_active	< 50%	–
COC(=O)c1sc(NNC(=O)c2ccc([N+](=O)[O-])cc2)nc1C	Not_active	< 50%	–
O=C(NNc1nc(-c2ccc(Cl)cc2)cs1)c1ccc(Cl)cc1	–	–	13.4 µM

SMILES	Ki [1]	inhibition [2]	Ki ([1]; read-out: Ki)
CCOC(=O)c1sc(NNC(=O)c2ccc(Br)cc2)nc1C	–	–	4.58 µM
Cc1ccc(-c2csc(NNC(=O)c3ccc(F)cc3)n2)cc1	–	–	11.1 µM
O=C(NNc1nc(-c2ccc(Br)cc2)cs1)c1ccc([N+](=O)[O-])cc1	Not_active	< 50%	–
O=C(NNc1nc(-c2ccc(Br)cc2)cs1)c1ccccc1	Not_active	< 50%	–
CCOC(=O)c1sc(NNC(=O)/C=C/c2ccccc2)nc1C	–	–	1.1 µM
CCOC(=O)c1sc(NNC(=O)c2cccc(Br)c2)nc1C	Not_active	< 50%	–
CCOC(=O)c1sc(NNC(=O)c2ccco2)nc1C	Not_active	< 50%	–
O=C(NNc1nc(-c2ccc(Cl)cc2)cs1)c1ccc(F)cc1	–	–	10.6 µM
O=C(NNc1nc(-c2ccc(Br)cc2)cs1)c1ccc(F)cc1	–	–	4.28 µM
Cc1ccc(-c2csc(NNC(=O)c3ccc(Cl)cc3)n2)cc1	Not_active	< 50%	–
CCOC(=O)c1sc(NNC(=O)c2ccccc2C)nc1C	Not_active	< 50%	–
Cc1ccc(C(=O)NNc2nc(-c3ccc(Cl)cc3)cs2)cc1	–	–	9.37 µM
CCOC(=O)c1sc(NNC(=O)c2ccc(C)cc2)nc1C	Not_active	< 50%	–
Cc1ccc(-c2csc(NNC(=O)c3ccc(Br)cc3)n2)cc1	Not_active	< 50%	–
Cc1ccc(C(=O)NNc2nc(-c3ccc(Br)cc3)cs2)cc1	Not_active	< 50%	–
CCOC(=O)c1sc(NNC(=O)c2ccc(Cl)cc2)nc1C	–	–	14.9 µM
O=c1c2ccccc2[se]n1-c1ccccc1 [EBSELEN]	–	–	0.486 µM
CCOC(=O)c1sc(NNC(=O)c2ccc([N+](=O)[O-])cc2)nc1C	–	–	0.73 µM
